From patent US20220008508A1, “RELAXIN RECEPTOR 1 FOR USE IN TREATMENT AND PREVENTION OF HEART FAILURE” (Universität Heidelberg, priority 2018, published 2022) come the findings set out here.

Assay [1] relates to adult mouse cardiomyocytes expressing RXFP1. Briefly: Ca2+ transient measurement in adult cardiomyocytes of RXFP1 transgenic mice. In kind it is cell-based. The conditions noted are these: isolated TG adult cardiomyocytes, 100 nM RLN, 1 minute. The text has this:
Adult mouse cardiac cells were isolated a modified protocol from Harding et al. (Harding et al., 1990, Cardioscience. 1: 49-54). The mouse heart was perfused with digestion buffer in the Langendorff technique, thus enabling dissociation of single cardiac cells. An adult male mouse (30-35 g) was quickly euthanatized by cervical dislocation. Incision areas on the abdomen and thorax were sterilized with 70% ethanol and opened with lateral cuts by scissors. The abdominal Vena Cava was exposed, and heparin was given I.V. Then the heart was exposed and cut out with a large portion of the aorta and quickly placed into a 6 cm Petri dish with 10 mL of room temperature perfusion buffer. The aorta was slid onto the cannula of the Langendorff apparatus and fixed with a double knots surgical suture. Perfusion was started immediately with a drip rate of ˜3.5 mL/min. Filling of the coronary arteries was checked and evaluated in order to determine, if the heart was correctly positioned on the cannula. In order to remove residual serum traces and free Ca2+, the heart was washed with perfusion buffer for 1 minute. After that the heart was perfused with digestion buffer containing a mixture of liberase (mixture of collagenases) and trypsin solution for 10 minutes. The perfusion was stopped, when the heart became flaccid and easily penetrable by fine tip forceps. […]
Intracellular Ca^2+ transients were measured according to Yu et al. with modifications to fit available apparatus (Yu et al., 2013, J. Biol. Chem. 288(31): 22481-22492). […] Next the dish was protected from light and connected to an electrode system on the table of a high throughput inverted fluorescence microscope (Cytocypher). […] The alternative measurement of the bispectral emission (340 nm/380 nm) was performed with the fluorescence microscope for baseline and after 1, 5, and 10 minutes stimulation with NaCl, 100 nM RLN, and 10 nM ISO. The transients were calculated using transient calculated software from the cytocypher. The following parameters were analyzed: a) Peak Height, b) Departure velocity, and c) Return velocity.

For a further assay, the target named is T1, huRXFP1 (Homo sapiens, UniProt Q9HBX9).
T1 construct: FLAG huRXFP1 was cloned onto a place holder plasmid; expressed in transfected cells; host or cells: transgenic mice, cardiomyocyte expression under the alpha-MHC promoter (in vivo)
T1 sequence (Q9HBX9 with tags, fused parts or gaps): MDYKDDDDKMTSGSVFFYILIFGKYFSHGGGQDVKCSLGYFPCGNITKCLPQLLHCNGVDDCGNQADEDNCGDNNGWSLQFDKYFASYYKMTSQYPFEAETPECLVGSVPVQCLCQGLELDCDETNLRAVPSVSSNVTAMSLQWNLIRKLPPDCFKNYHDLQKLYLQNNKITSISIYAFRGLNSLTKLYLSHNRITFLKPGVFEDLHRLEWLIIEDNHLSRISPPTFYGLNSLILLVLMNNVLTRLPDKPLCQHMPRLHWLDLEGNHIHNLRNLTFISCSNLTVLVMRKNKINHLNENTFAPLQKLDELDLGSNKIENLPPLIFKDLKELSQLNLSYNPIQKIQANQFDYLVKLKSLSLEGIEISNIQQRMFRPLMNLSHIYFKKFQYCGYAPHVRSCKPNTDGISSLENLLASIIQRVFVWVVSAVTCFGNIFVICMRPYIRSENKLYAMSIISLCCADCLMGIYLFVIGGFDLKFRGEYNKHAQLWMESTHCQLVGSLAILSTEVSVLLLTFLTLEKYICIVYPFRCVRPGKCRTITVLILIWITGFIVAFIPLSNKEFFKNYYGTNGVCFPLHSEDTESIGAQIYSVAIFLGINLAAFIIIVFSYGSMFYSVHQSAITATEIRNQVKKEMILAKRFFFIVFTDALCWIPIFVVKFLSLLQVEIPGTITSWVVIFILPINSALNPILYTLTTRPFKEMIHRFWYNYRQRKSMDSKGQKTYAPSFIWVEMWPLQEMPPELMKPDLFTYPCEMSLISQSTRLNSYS
Put plainly: Pressure-volume loop hemodynamics in huRXFP1 TG animals after RLN administration. In kind it is in vivo, mouse. As to conditions: RXFP1 transgenic animals vs WT animals, 10 μg RLN I.P. The method, then:
Pressure-volume loop (PV loop) measurement was performed modified from Abraham and Mao (Abraham and Mao (2015), J. Vis. Exp. (103): e52942). The animal was anesthetized according to the body weight with a cocktail of medetomidine, midazolam, and fentanyl intraperitoneally 15 minutes prior to the measurements. After the righting reflex was lost, the mouse was secured to the operating table with surgical tape. Prior to the measurement, the catheter tip was equilibrated in warm saline for 30 minutes. The neck and chest area was cleaned with ethanol and the fur was removed. An incision was made over the right carotid from mandible to sternum. The surrounding tissue was dissected to expose the right carotid, and the vagus nerve, which runs adjacent to the carotid, was […]. Sterile 6.0 silk suture was placed around the distal end (away from the chest) of the carotid artery, tied and secured. An additional suture was placed below the first suture on the carotid artery. The second suture was loosely tightened and clamped the carotid artery proximally to the second suture. […] The PV loops were continuously recorded throughout the experiment until 10 minutes after administration of the tested substances.
minimum were calculated according to the manufacturer's recommendation (Transonic). […]

For the substance “RLN: recombinant relaxin H2 peptide hormone, RXFP1 agonist”, in assay [1], the “Ca2+ transient Departure velocity” value is reported as “trend toward an increase”, the “Ca2+ transient Peak Height” value is given as “trend toward an increase” and the “Ca2+ transient Return velocity” value is “trend toward an increase”. Further, in the assay with huRXFP1, the “Heart rate (HR)” value is “significant increase” and the dP/dt maximum entry is “significant increase”.
